Laboratory results: patent publication US9181218B2, “Compounds for improved stem cell differentiation into hepatocytes” (Hoffmann-La Roche Inc., priority 2013, dated 2015)

Test system: Human iPSC-derived hepatocytes (iCell® Hepatocytes)
Assay: Gene expression profiling of iCell Hepatocytes by microfluidic qRT-PCR
Assay type: cell-based
Conditions: multiple doses, FIG. 1
Description: Human iPSC-derived hepatocytes (iCell® Hepatocytes) were exposed to the compounds of formula I with the goal of identifying conditions that favor greater functionality that better models the adult organ. […] Gene expression changes were validated and confirmed in a secondary screen, and functional consequences were queried.
Fresh iCell® Hepatocytes (day 20-23) were plated and cultured according to iCell Hepatocytes Dissociation and Plating User's Guide at 60 k cells per well in 96 well BIO Collagen IV coated plates (BD Cat#354429) 4 Hours post plating Medium C was removed and replaced with a 1:50 Matrigel (Cat#354227) overlay in Medium D. We dosed the cells at 5 uM in Medium D and 1% DMSO 24 hours post plating. Day 3, media was removed and we dosed again at 5 uM. Day 4 we Harvested RNA.
Sample RNA was isolated using TaqMan® Gene Expression Cells-to-CT™ Kit (Life Technologies Cat#4387299) froze at −80 C at various time points post compound treatment. All samples were processed by microfluidic quantitative PCR using the Biomark Fluidigm 96.96 chips (BMK-M-96.96) and ABI Taqman probes. Normalization and model-based expression measurements were calculated using the Biogazelle qBASE and Genorm software. […] Expression values are calculated by the fold change over vehicle control. […]

O=C(NCc1cccc(F)c1)c1cccc2nc(-c3c(NC[C@@H](O)c4ccccc4)cc[nH]c3=O)[nH]c12 [Example 1, 2-[4-((S)-2-hydroxy-2-phenyl-ethylamino)-2-oxo-1,2-dihydro-pyridin-3-yl]-3H-benzoimidazole-4-carboxylic acid 3-fluoro-benzylamide]
expression of genes spanning hepatocyte function: global increase of genes spanning hepatocyte function
